Data on 18 molecules can be found in patent US11247990B1, “Bicyclic fused pyridine compounds as inhibitors of TAM kinases” (ARRAY BIOPHARMA INC., priority 2017, dated 2022).

Where only a bound is given, the exact number is not on record here.

What all share (details): averaged IC50
Assay [1] deals with His-tagged recombinant human AXL cytoplasmic domain (Homo sapiens (Human), UniProt P30530). The assay is described as follows: AXL Enzyme Assay (LanthaScreen Eu Kinase Binding, TR-FRET). Put shortly:
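LanthaScreen Eu kinase binding format, incubated 60 min at 22 °C and read by TR-FRET dual-wavelength emission ratio as percent of control. IC50 taken where a 4-parameter logistic fit crosses 50 POC.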
(In TR-FRET formats the signal depends on donor and acceptor labels being close together.)

Assay [2] concerns the target His-tagged recombinant human MER cytoplasmic domain (Homo sapiens (Human), UniProt Q12866). The assay is described as follows: MER Enzyme Assay (LanthaScreen Eu Kinase Binding, TR-FRET). A digest of the protocol:
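LanthaScreen Eu kinase binding (tracer displacement) assay with His-tagged human MER cytoplasmic domain, 60 min incubation at 22 °C. TR-FRET dual-wavelength emission ratio converted to percent of control; IC50 is where the 4-parameter logistic fit crosses 50 POC.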

Assay [3] deals with GST-tagged recombinant human TYRO3 kinase domain (Homo sapiens (Human), UniProt Q06418). The assay is described as follows: TYRO3 Enzyme Assay (LanthaScreen Eu Kinase Binding, TR-FRET). Put shortly: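 LanthaScreen Eu binding (tracer displacement) format read by TR-FRET after 60 min at 22 °C. Emission ratio converted to percent of control; IC50 taken where a 4-parameter logistic fit crosses 50 POC.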
Chain of GST-tagged recombinant human TYRO3 kinase domain (Q06418 518-790): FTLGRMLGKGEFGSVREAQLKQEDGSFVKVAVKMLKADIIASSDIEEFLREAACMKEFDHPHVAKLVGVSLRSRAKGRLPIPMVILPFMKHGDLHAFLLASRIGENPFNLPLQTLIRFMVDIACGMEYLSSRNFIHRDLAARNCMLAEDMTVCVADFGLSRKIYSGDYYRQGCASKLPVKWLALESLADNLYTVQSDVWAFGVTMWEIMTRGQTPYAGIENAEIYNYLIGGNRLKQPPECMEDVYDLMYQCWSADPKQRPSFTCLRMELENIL

Chain of His-tagged recombinant human AXL cytoplasmic domain (P30530 473-894): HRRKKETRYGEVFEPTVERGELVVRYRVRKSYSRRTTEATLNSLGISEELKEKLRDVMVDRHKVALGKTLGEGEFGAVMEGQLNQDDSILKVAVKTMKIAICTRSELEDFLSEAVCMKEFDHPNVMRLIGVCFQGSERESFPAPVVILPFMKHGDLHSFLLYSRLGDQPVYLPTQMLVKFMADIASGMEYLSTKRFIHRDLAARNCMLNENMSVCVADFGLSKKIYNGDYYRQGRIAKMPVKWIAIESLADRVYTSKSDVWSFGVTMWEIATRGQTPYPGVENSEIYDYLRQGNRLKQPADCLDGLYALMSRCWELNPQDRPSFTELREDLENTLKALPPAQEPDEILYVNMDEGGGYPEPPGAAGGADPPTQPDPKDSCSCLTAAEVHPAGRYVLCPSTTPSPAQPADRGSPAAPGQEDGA
Chain of His-tagged recombinant human MER cytoplasmic domain (Q12866 527-999): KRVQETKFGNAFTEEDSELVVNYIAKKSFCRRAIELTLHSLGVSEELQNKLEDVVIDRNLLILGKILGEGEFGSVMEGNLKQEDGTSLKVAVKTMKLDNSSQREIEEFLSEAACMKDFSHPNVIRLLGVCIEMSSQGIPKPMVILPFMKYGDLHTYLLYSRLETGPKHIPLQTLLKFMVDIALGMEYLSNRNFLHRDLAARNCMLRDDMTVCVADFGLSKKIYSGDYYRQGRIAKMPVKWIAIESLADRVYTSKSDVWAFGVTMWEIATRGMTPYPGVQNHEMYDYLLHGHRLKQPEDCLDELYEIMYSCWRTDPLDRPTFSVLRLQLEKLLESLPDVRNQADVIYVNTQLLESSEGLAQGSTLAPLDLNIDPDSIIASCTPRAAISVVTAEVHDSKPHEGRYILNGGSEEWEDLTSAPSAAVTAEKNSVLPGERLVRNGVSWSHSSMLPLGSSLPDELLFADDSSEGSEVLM

What is called IC50 is the concentration that inhibits the measured activity by half. As to `CCNc1cc2c(cn1)c(-c1cnn(C[C@H](O)C(C)(C)O)c1)nn2[C@H]1CC[C@@H](Oc2cccc(F)c2F)CC1` [Example 445, (S)-1-(4-(1-((1s,4R)-4-(2,3-difluorophenoxy)cyclohexyl)-6-(ethylamino)-1H-pyrazolo[4,3-c]pyridin-3-yl)-1H-pyrazol-1-yl)-3-methylbutane-2,3-diol], the IC50 in assay [1], in assay [2] and in assay [3] was less than 10 nM throughout.
On to `CCNc1cc2c(cn1)c(-c1cnn(C[C@@H](O)C(C)(C)O)c1)nn2[C@H]1CC[C@@H](Oc2cccc(F)c2F)CC1` [Example 446, (R)-1-(4-(1-((1s,4S)-4-(2,3-difluorophenoxy)cyclohexyl)-6-(ethylamino)-1H-pyrazolo[4,3-c]pyridin-3-yl)-1H-pyrazol-1-yl)-3-methylbutane-2,3-diol], for which the 50% inhibitory concentration (IC50) in assay [1], in assay [2] and in assay [3] was less than 10 nM in each case.
Consider `CCNc1cc2c(cn1)c(-c1cnn(C[C@@H](O)C(C)(C)O)c1)nn2[C@H]1CC[C@@H](Oc2ccc(F)cc2F)CC1` [Example 447, (R)-1-(4-(1-((1s,4S)-4-(2,4-difluorophenoxy)cyclohexyl)-6-(ethylamino)-1H-pyrazolo[4,3-c]pyridin-3-yl)-1H-pyrazol-1-yl)-3-methylbutane-2,3-diol], for which the IC50 is less than 10 nM in assay [1], less than 10 nM in assay [2] and 10 to 100 nM in assay [3].
As for `CCNc1cc2c(cn1)c(-c1cnn(C[C@H](O)C(C)(C)O)c1)nn2[C@H]1CC[C@@H](Oc2ccc(F)cc2F)CC1` [Example 448, (S)-1-(4-(1-((1s,4S)-4-(2,4-difIuorophenoxy)cyclohexyl)-6-(ethylamino)-1H pyrazolo[4,3-c]pyridin-3-yl)-1H-pyrazol-1-yl)-3-methylbutane-2,3-diol], the IC50 is less than 10 nM in assay [1], less than 10 nM in assay [2] and 10 to 100 nM in assay [3].
`CNc1cc2c(cn1)c(-c1cnn(C)c1)nn2[C@@H]1CC[C@H](Oc2ccccc2)[C@@H](O)C1` [Example 471A, (1S,2S,5R)-5-(3-(1-methyl-1H-pyrazol-4-yl)-6-(methylamino)-1H-pyrazolo[4,3-c]pyridin-1-yl)-2-phenoxycyclohexan-1-ol]: the 50% inhibitory concentration (IC50) in assay [1] was less than 10 nM; in assay [2], less than 10 nM; in assay [3], 10 to 100 nM.
Regarding `CNc1cc2c(cn1)c(-c1cnn(C)c1)nn2[C@H]1CC[C@@H](Oc2ccccc2)[C@H](O)C1` [Example 471B, (1R,2R,5S)-5-(3-(1-methyl-1H-pyrazol-4-yl)-6-(methylamino)-1H-pyrazolo[4,3-c]pyridin-1-yl)-2-phenoxycyclohexan-1-ol], the concentration for half-maximal inhibition (IC50) was less than 10 nM in assay [1], less than 10 nM in assay [2] and 10 to 100 nM in assay [3].
Regarding `CCNc1cc2c(cn1)c(-c1cnn(C[C@@H](O)CO)c1)nn2[C@H]1CC[C@@H](Oc2nccc(C#N)c2F)CC1` [Example 487, 2-(((1S,4s)-4-(3-(1-((R)-2,3-dihydroxypropyl)-1H-pyrazol-4-yl)-6-(ethylamino)-1H-pyrazolo[4,3-c]pyridin-1-yl)cyclohexyl)oxy)-3-fluoroisonicotinonitrile], the IC50 in assay [1], in assay [2] and in assay [3] was less than 10 nM each time.
As for `CCNc1cc2c(cn1)c(N1CC[C@@H](O)C1)nn2[C@H]1CC[C@@H](Oc2nccc(C(F)(F)F)c2F)CC1` [Example 488, (R)-1-(6-(ethylamino)-1-((1s,4S)-4-((3-fluoro-4-(trifluoromethyl)pyridin-2-yl)oxy)cyclohexyl)-1H-pyrazolo[4,3-c]pyridin-3-yl)pyrrolidin-3-ol], the IC50 is less than 10 nM in assay [1], less than 10 nM in assay [2] and 10 to 100 nM in assay [3].
Regarding `CCNc1cc2c(cn1)c(N1CCC(N3CCN(C)CC3)CC1)nn2[C@H]1CC[C@@H](Oc2nccc(C(F)(F)F)c2F)CC1` [Example 489, N-ethyl-1-((1s,4s)-4((3-fluoro-4-(trifluoromethyl)pyridin-2-yl)oxy)cyclohexyl)-3-(4-(4-methylpiperazin-1-yl)piperidin-1-yl)-1H-pyrazolo[4,3-c]pyridin-6-amine], the 50% inhibitory concentration (IC50) was less than 10 nM in assay [1], less than 10 nM in assay [2] and 10 to 100 nM in assay [3].
For the molecule `CCNc1cc2c(cn1)c(N1CCNCC1)nn2[C@H]1CC[C@@H](Oc2cccc(C(F)(F)F)c2F)CC1` [Example 490, N-ethyl-1-((1s,4s)-4-(2-fluoro-3-(trifluoromethyl)phenoxy)cyclohexyl)-3-(piperazin-1-yl)-1H-pyrazolo[4,3-c]pyridin-6-amine], the IC50 in assay [1], in assay [2] and in assay [3] was less than 10 nM throughout.
Turning to `CCNc1cc2c(cn1)c(N1CC[C@H](NC)C1)nn2[C@H]1CC[C@@H](Oc2cccc(C(F)(F)F)c2F)CC1` [Example 491, N-ethyl-1-((1s,4R)-4-(2-fluoro-3-(trifluoromethyl)phenoxy)cyclohexyl)-3-((S)-3-(methylamino)pyrrolidin-1-yl)-1H-pyrazolo[4,3-c]pyridin-6-amine], the results for the concentration for half-maximal inhibition (IC50) in assay [1], in assay [2] and in assay [3] were less than 10 nM, less than 10 nM and 10 to 100 nM, respectively.
As to `CCNc1cc2c(cn1)c(N1CC[C@@H](NC)C1)nn2[C@H]1CC[C@@H](Oc2cccc(C(F)(F)F)c2F)CC1` [Example 492, N-ethyl-1-((1s,4S)-4-(2-fluoro-3-(trifluoromethyl)phenoxy)cyclohexyl)-3-((R)-3-(methylamino)pyrrolidin-1-yl)-1H-pyrazolo[4,3-c]pyridin-6-amine], the IC50 in assay [1] is less than 10 nM; in assay [2] it was less than 10 nM; in assay [3] it was 10 to 100 nM.
On to `CCNc1cc2c(cn1)c(N1CC[C@H](N)C1)nn2[C@H]1CC[C@@H](Oc2nccc(C(F)(F)F)c2F)CC1` [Example 493, 3-((S)-3-aminopyrrolidin-1-yl)-N-ethyl-1-((1s,4R)-4-((3-fluoro-4-(trifluoromethyl)pyridin-2-yl)oxy)cyclohexyl)-1H-pyrazolo[4,3-c]pyridin-6-amine], for which the half-maximal inhibitory concentration (IC50) in assay [1] is less than 10 nM; in assay [2] it was less than 10 nM; in assay [3], 10 to 100 nM.
Consider `CCNc1cc2c(cn1)c(N1CC[C@@H](N)C1)nn2[C@H]1CC[C@@H](Oc2nccc(C(F)(F)F)c2F)CC1` [Example 494, 3-((R)-3-aminopyrrolidin-1-yl)-N-ethyl-1-((1s,4S)-4-((3-fluoro-4-(trifluoromethyl)pyridin-2-yl)oxy)cyclohexyl)-1H-pyrazolo[4,3-c]pyridin-6-amine], for which the figures for the 50% inhibitory concentration (IC50) in assay [1], in assay [2] and in assay [3] were less than 10 nM, less than 10 nM and 10 to 100 nM, respectively.
In the case of `CNc1cc2c(cn1)c(N1CCNCC1)nn2[C@H]1CC[C@@H](Oc2nccc(C(F)(F)F)c2F)CC1` [Example 495, 1-((1s,4s)-4-((3-fluoro-4-(trifluoromethyl)pyridin-2-yl)oxy)cyclohexyl)-N-methyl-3-(piperazin-1-yl)-1H-pyrazolo[4,3-c]pyridin-6-amine], the IC50 in assay [1], in assay [2] and in assay [3] was less than 10 nM throughout.
As for `CCNc1cc2c(cn1)c(-c1cnn(CCN3CCN(C)CC3)c1)nn2[C@H]1CC[C@@H](Oc2nccc(C(F)(F)F)c2F)CC1` [Example 496], the IC50 in assay [1], in assay [2] and in assay [3] was less than 10 nM throughout.
Regarding `CCNc1cc2c(cn1)c(-c1cnn(C)c1)nn2[C@H]1CC[C@@H](Oc2cccc(C#N)c2F)CC1` [Example 497], the IC50 in assay [1], in assay [2] and in assay [3] was less than 10 nM in each case.
Take `CCNc1cc2c(cn1)c(-c1cnn(C)c1)nn2[C@H]1CC[C@@H](Oc2cccc(C(F)(F)F)c2F)CC1` [Example 498, N-ethyl-1-((1s,4s)-4-(2-fluoro-3-(trifluoromethyl)phenoxy)cyclohexyl)-3-(1-methyl-1H-pyrazol-4-yl)-1H-pyrazolo[4,3-c]pyridin-6-amine]: the IC50 in assay [1] was less than 10 nM; in assay [2], less than 10 nM; in assay [3], 10 to 100 nM.
